Measured values published in article PMC9738062, “Selectively Halogenated Flavonolignans—Preparation and Antibacterial Activity” (International Journal of Molecular Sciences, 2022).

Test system: murine macrophages (RAW 264.7)
Assay: Cell viability in the nitric oxide assay (resazurin assay)
Type: cell-based
Settings: RAW 264.7, nitric oxide assay
Protocol: The anti-inflammatory activity of the tested flavonolignans was determined as the ability to reduce nitric oxide production by murine macrophages (RAW 264.7) stimulated by bacterial lipopolysaccharides, as previously described. […] For the experiment, 1 × 10^6 cells/mL was seeded into the 96-well plate (100 µL/well). […] After 24 h, the medium was mixed with Griess reagent (0.04 g/mL), prepared freshly in deionized water at the ratio of 1:1. The absorbance was measured after 15 min at 540 nm by the SpectraMax i3x microplate reader. Cell viability was determined by resazurin assay.

## COc1cc(C2Oc3cc(-c4oc5c(Br)c(O)cc(O)c5c(=O)c4O)ccc3OC2CO)ccc1O (stereo not shown) [compound 16, 8-bromo-2,3-dehydrosilybin AB]
  Concentration above which the cell viability decreased: > 25 µM
